Legend:
SCC7 cell line = assay: Cell viability assay (MTT); type: cell-based, murine
Description: Murine squamous cell carcinoma cell line, SCC7 purchased from Prof. Reinhard Zeidler, at the German Research Center for Environmental Health in Munich, were cultured in DMEM containing 10% v/v FBS and (2 mM) L-glutamine, kept at a temperature of 37° C. and in humidified atmosphere containing 5% v/v CO2 and 95% v/v air. For maintain cell growth, cells were split every 2-3 days using […] trypsin solution for detaching.
Tablets (1×3 mm) containing alginate (0.8, 1.6 mg) and liposomes (0.8 mg) in the form of layered or homogenous, either empty or DOX loaded liposomes were prepared as described above. The final concentration of DOX in each tablet was (1.68 mg mL^−1). To examine the toxicity of the tablets containing the drug on SCC7 cell line, at first cells were seeded at a uniform density of 15,000 cells per well on 96 well plates in […] DMEM medium. On the day of the experiment, medium was replaced with fresh medium containing the tablets, free DOX and in some wells empty fresh medium to serve as control. Cells were incubated for 4, 8, 12, 24, 48 and 72 hr in humidified atmosphere at 37° C. Cells viability was measured using the MTT assay. The medium was removed and (100 μl) of MTT (1 mg mL^−1) in PBS^−1 were added to each well and incubated at 37° C. for 4 hr. […] The absorbance was measured at 570 nm and 690 nm for the background absorbance. […]

OSCC cell line (HSC-2) = conditions: in vitro; cited from earlier work

For `COc1cccc2c1C(=O)c1c(O)c3c(c(O)c1C2=O)C[C@@](O)(C(=O)CO)C[C@@H]3O[C@H]1C[C@H](N)[C@H](O)[C@H](C)O1` [free DOX, Doxorubicin], the cell viability (SCC7 cell line; SCC7, long times) is given as 3-10%, the cell viability (SCC7 cell line; SCC7, short times) is given as 28-40% and the apoptosis induction (OSCC cell line (HSC-2)) is given as “induce apoptosis through the activation of caspase-3, -8 and -9”.

Reference: patent publication US20240091145A1, “DRY MUCO-ADHESIVE COMPOSITIONS AND USE THEREOF” (TECHNION RESEARCH & DEVELOPMENT FOUNDATION LIMITED, priority 2021, published 2024)
